Laboratory results from patent US9248117B2, “Substituted N,N-dihaloamines as antimicrobials” (priority 2010, dated 2016).
Values after ≈ are worked out from the molar mass of the structure shown.

Experiments:
E. coli 25922 = experiment: MBC/MFC against E. coli 25922; assay type: cell-based; details: Escherichia coli
S. aureus 29213 = experiment: MBC/MFC against S. aureus 29213; assay type: cell-based; details: Staphylococcus aureus
C. albicans 10231 = experiment: MBC/MFC against C. albicans 10231; assay type: cell-based; details: Candida albicans
L929 cells = experiment: CT50 cytotoxicity in L929 cells; details: pH 7 phosphate

Structure (SMILES)	MBC (E. coli 25922; pH 4 acetate, Table 4)	MBC (E. coli 25922; pH 7 phosphate, Table 4)	MBC (S. aureus 29213; pH 4 acetate, Table 4)	MBC (S. aureus 29213; pH 7 phosphate, Table 4)	MFC (C. albicans 10231; pH 4 acetate, Table 4)	MFC (C. albicans 10231; pH 7 phosphate, Table 4)	CT50 L929 cells (L929 cells; Table 4)	MBC (E. coli 25922; pH 4 acetate, Table 3)	MBC (E. coli 25922; pH 7 phosphate, Table 3)	MBC (S. aureus 29213; pH 4 acetate, Table 3)	MBC (S. aureus 29213; pH 7 phosphate, Table 3)	MFC (C. albicans 10231; pH 4 acetate, Table 3)	MFC (C. albicans 10231; pH 7 phosphate, Table 3)	CT50 L929 cells (L929 cells; Table 3)
CC1(C)C(CO)OC(=O)N1Cl (stereo not drawn) [Compound 39-122, 3-chloro-5-(hydroxymethyl)-4,4-dimethyloxazolidin-2-one]	2 µg/mL (≈ 11.1 µM)	2 µg/mL (≈ 11.1 µM)	4 µg/mL (≈ 22.3 µM)	4 µg/mL (≈ 22.3 µM)	> 512 µg/mL	1020 µg/mL (≈ 5700 µM)	0.14 mM	–	–	–	–	–	–	–
CCOCCOCCOCCS(=O)(=O)CCC(C)(C)N(Cl)Cl [Compound 38-89, N,N-dichloro-4-(2-(2-(2-ethoxyethoxy)ethoxy)ethylsulfonyl)-2-methylbutan-2-amine]	–	–	–	–	–	–	–	8 µg/mL (≈ 21 µM)	256 µg/mL (≈ 673 µM)	8 µg/mL (≈ 21 µM)	128 µg/mL (≈ 337 µM)	4 µg/mL (≈ 10.5 µM)	512 µg/mL (≈ 1350 µM)	0.06 mM
CC(C)(C)OCCOCCOCCS(=O)(=O)CCC(C)(C)N(Cl)Cl [Compound 38-91, N,N-dichloro-4-(2-(2-(2-tert-butoxyethoxy)ethoxy)ethylsulfonyl)-2-methylbutan-2-amine]	–	–	–	–	–	–	–	8 µg/mL (≈ 19.6 µM)	> 256 µg/mL	4 µg/mL (≈ 9.79 µM)	128 µg/mL (≈ 313 µM)	16 µg/mL (≈ 39.2 µM)	128 µg/mL (≈ 313 µM)	–
COCC[N+](C)(C)CCC(C)(C)N(Cl)Cl.[Cl-] [Compound 38-43, 3-(dichloroamino)-N-(2-methoxyethyl)-N,N,3-trimethylbutan-1-aminium chloride]	–	–	–	–	–	–	–	2 µg/mL	1020 µg/mL	1 µg/mL	512 µg/mL	32 µg/mL	> 2050 µg/mL	1.2 mM
CC(C)(CCS(=O)(=O)C(CO)C(O)CO)N(Cl)Cl (stereo not drawn) [Compound 38-145, 3-(3-(Dichloroamino)-3-methylbutylsulfonyl)butane-1,2,4-triol]	–	–	–	–	–	–	–	2 µg/mL (≈ 6.17 µM)	64 µg/mL (≈ 197 µM)	2 µg/mL (≈ 6.17 µM)	16 µg/mL (≈ 49.3 µM)	64 µg/mL (≈ 197 µM)	1020 µg/mL (≈ 3160 µM)	–
CC(=O)OCC(O)CS(=O)(=O)CCC(C)(C)N(Cl)Cl (stereo not drawn) [Compound 38-49, 3-(3-(Dichloroamino)-3-methylbutylsulfonyl)-2-hydroxypropyl acetate]	–	–	–	–	–	–	–	2 µg/mL	64 µg/mL	4 µg/mL	32 µg/mL	16 µg/mL	> 512 µg/mL	–
CC(=O)OCC(CS(=O)(=O)CCC(C)(C)N(Cl)Cl)OC(C)=O (stereo not drawn) [Compound 38-51, 3-(3-(Dichloroamino)-3-methylbutylsulfonyl)propane-1,2-diyl diacetate]	–	–	–	–	–	–	–	1 µg/mL	128 µg/mL	2 µg/mL	128 µg/mL	16 µg/mL	128 µg/mL	–
CC(=O)OCCOCCOCCS(=O)(=O)CCC(C)(C)N(Cl)Cl [Compound 38-87, 2-(2-(2-(3-(Dichloroamino)-3-methylbutylsulfonyl)ethoxy)ethoxy)ethyl acetate]	–	–	–	–	–	–	–	4 µg/mL	128 µg/mL	4 µg/mL	128 µg/mL	32 µg/mL	512 µg/mL	–
CO[C@H]1O[C@H](CS(=O)(=O)CCC(C)(C)N(Cl)Cl)[C@@H](O)[C@H](O)[C@H]1O [Compound 38-141, (2S,3S,4S,5R,6S)-2-(((3-(dichloroamino)-3-methylbutyl)sulfonyl)methyl)-6-methoxytetrahydro-2H-pyran-3,4,5-triol]	–	–	–	–	–	–	–	8 µg/mL (≈ 20.2 µM)	512 µg/mL (≈ 1290 µM)	8 µg/mL (≈ 20.2 µM)	256 µg/mL (≈ 646 µM)	16 µg/mL (≈ 40.4 µM)	> 1020 µg/mL	–
CC(C)(CCS(=O)(=O)CCO)N(Cl)Cl [Compound 38-25, 2-(3-(Dichloroamino)-3-methylbutylsulfonyl)ethanol]	–	–	–	–	–	–	–	0.5 µg/mL (≈ 1.89 µM)	8 µg/mL (≈ 30.3 µM)	1 µg/mL (≈ 3.79 µM)	16 µg/mL (≈ 60.6 µM)	16 µg/mL (≈ 60.6 µM)	512 µg/mL (≈ 1940 µM)	–
CC(C)(CCS(=O)(=O)CC(O)C(O)CO)N(Cl)Cl (stereo not drawn) [Compound 38-29, 4-(3-(Dichloroamino)-3-methylbutylsulfonyl)butane-1,2,3-triol]	–	–	–	–	–	–	–	2 µg/mL (≈ 6.17 µM)	128 µg/mL (≈ 395 µM)	1 µg/mL (≈ 3.08 µM)	32 µg/mL (≈ 98.7 µM)	256 µg/mL (≈ 790 µM)	> 1020 µg/mL	–
